For data set [1], the system named is ex vivo-stimulated IFN-α secretion (TLR7/8). The format is in vivo, human.
For data set [2] the following is noted: cited from earlier work.
The test system of the next data set is aldehyde oxidase enzyme. Particulars: shown in vitro; cited from earlier work.
In data set [3] the test system is IFN-α-accelerated NZB/W mouse model of lupus. Particulars: cited from earlier work.
The test system of data set [4] is BXSB-Yaa mouse model of lupus. Particulars: cited from earlier work.
A further data set concerns IL-6 secretion (TLR7/8). Particulars: mice, mouse models of lupus; cited from earlier work.
Data set [5] relates to ex vivo-stimulated IL-6 secretion (TLR7/8). It is filed as in vivo, human.
For data set [6] the following is noted: cited from earlier work. This is another data set of the same source.
The next data set has as its system Caco-2. Particulars: cited from earlier work.
Data set [7] can be described thus: Population PK model of oral enpatoran, phase I healthy participant study. The format is in vivo, human. The conditions noted are these: interindividual variability, PopPK model.
For data set [8] the following is noted: phase I study in healthy participants; cited from earlier work.

These results are taken from PMC9540480 (Clinical Pharmacology and Therapeutics, 2022).

In brackets after ≈: the same amount, converted by molar mass. Where only a bound is given, the exact number is not on record here.

Turning to `N#Cc1ccc(N2C[C@H](N)C[C@H](C(F)(F)F)C2)c2cccnc12` [enpatoran, Enpatoran], the IC90 (as a rule, the concentration at which the effect reaches the 90% level) amounted to 0.0221 µg/mL (≈ 0.069 µM) in [1] (Homo sapiens) and 0.0155 µg/mL (≈ 0.0484 µM) in [5] (Homo sapiens). The “inhibition of cytokine release with increasing enpatoran concentrations” value in data set [1] (IFN-α, complete inhibition) was 100%; in [5] (IL-6, complete inhibition), 100%. Also, the Hill factor in data set [1] (ex vivo-stimulated IFN-α) and in data set [5] (ex vivo-stimulated IL-6) was above 1.5 throughout. The IC60 was determined as 0.00843 µg/mL (≈ 0.0263 µM) in data set [1] (ex vivo-stimulated IFN-α, derived from IC50 and Hill factor); 0.00559 µg/mL (≈ 0.0175 µM) in data set [5] (ex vivo-stimulated IL-6, derived from IC50 and Hill factor). Also, in data set [2], the “F (fraction of the oral dose systemically available)” value was above 85%. In addition, the metabolic route result in the data set with aldehyde oxidase enzyme is recorded as “metabolism via the aldehyde oxidase enzyme”. The “doses suppressing disease development” value in data set [3] and in data set [4] was at least 1 mg/kg each time. Moreover, the “lowest (minimally) efficacious dose” value in the data set with IL-6 secretion (TLR7/8) was 1 mg/kg. Further, the logP (as a rule, the decadic logarithm of the partition coefficient of the neutral form, usually between octanol and water) in [6] is recorded as 2. Besides, the Caco-2 permeability in the data set on Caco-2 was 26 ×10⁻⁶ cm/s. The “IIV CL/F” value in [7] was 27.5 %CV. The tolerability entry in [8] is “well‐tolerated”.
